Source: US20200236959A1, “METHOD FOR ANTI-SPROUTING TUBER TREATMENT WITH REDUCED AMOUNT OF CIPC” (priority 2014, published 2020)

Assays:
[1] = system: potatoes of the variety Bintje; assay: Fogging trial in potato storage cabins, sprout index (PCA scale); type: in vivo, Solanum tuberosum; settings: fogging every 3 weeks during storage, PCA scale 1-9
Procedure: The storage system was designed to duplicate a large commercial storage facility in miniature. It consisted of 4 test cabins, with room for 4 boxes per level. In total there were 7 levels, and the boxes were placed in a stair-pattern, in clock-wise direction. Each cabin could be used to store up to 560 kg of potatoes per cabin. The dimensions of a cabin are depicted in FIG. 1.
During storage the air temperature within the storage system was kept between 5.0° C. and 9.5° C. The relative humidity was kept between 87% and 100%.
The application equipment used for hot fogging was IGEBA TF-35. The application equipment used for cold fogging was VEUGEN, type: FOGCOL. The operation pressure was 3.3 bar. […]
Around 15 minutes before treatment, Automatic Regulation was switched off and Manual Internal Ventilation was switched on (Force III). […] Note: Ventilation Force III means ˜900 m^3/h. • As the exact weight of tubers in the cell was known, the exact quantity of formulated product was calculated and prepared. • During spraying/fogging and till around 15 minutes after spraying, Internal • Ventilation was kept switched on (Force III) to assure a good contact between product and tubers. • Around 15 minutes after spraying, Internal Ventilation was switched off • The day after (minimum 12 hours after end of spraying) Automatic Regulation was switched on till next application or till end of trial […]

potatoes = settings: hot fogging; cited from earlier work

**Q.** Which “sprout growth (sprout index, FIG. 2)” value [1] does the source give for `C=C(C)C1CC=C(C)CC1` (centres unmarked) [Limonene, 1-methyl-4-(1-methylethenyl)-cyclohexene] here?
**A.** The value was “did not have any effect on sprout growth”.

**Q.** Which “anti-sprouting efficacy in combination with CIPC” value (potatoes) does the source give for `C=C(C)C1CC=C(C)C(=O)C1` (centres unmarked) [carvone] here?
**A.** The value was “good result”.
